In ChEMBL document CHEMBL4507276 (2021):

Tests used:
[1] = target: T1, Tyrosine-protein kinase TXK (Homo sapiens) (UniProt P42681); assay: TXK Invitrogen selectivity data (BI); settings: Compound concentration 3.0 uM
T1 sequence (whole entry): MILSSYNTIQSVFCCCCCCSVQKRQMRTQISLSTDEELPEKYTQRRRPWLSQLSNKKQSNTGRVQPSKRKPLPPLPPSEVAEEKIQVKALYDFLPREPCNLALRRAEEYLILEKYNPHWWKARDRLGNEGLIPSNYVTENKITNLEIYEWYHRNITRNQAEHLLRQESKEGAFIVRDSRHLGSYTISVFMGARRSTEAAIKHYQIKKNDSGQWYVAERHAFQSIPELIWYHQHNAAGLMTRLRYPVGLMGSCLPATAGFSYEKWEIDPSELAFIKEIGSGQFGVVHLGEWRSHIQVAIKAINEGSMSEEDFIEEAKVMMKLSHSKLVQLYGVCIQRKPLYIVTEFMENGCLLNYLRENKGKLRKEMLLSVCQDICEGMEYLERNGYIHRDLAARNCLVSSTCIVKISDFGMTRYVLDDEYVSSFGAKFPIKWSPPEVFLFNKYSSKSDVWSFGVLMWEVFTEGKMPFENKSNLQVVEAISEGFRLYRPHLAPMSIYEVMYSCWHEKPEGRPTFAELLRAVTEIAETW

[2] = target: 72 kDa type IV collagenase (Homo sapiens) (UniProt P08253); assay: MMP-2 (H) Cerep selectivity data (BI); settings: Compound concentration 20.0 uM
[3] = target: Rho-associated protein kinase 2 (Homo sapiens) (UniProt O75116); assay: ROCK2 Invitrogen selectivity data (BI); settings: Compound concentration 3.0 uM
[4] = target: AMP-activated protein kinase (AMPK) alpha-1/beta-1/gamma-1 (Homo sapiens) (UniProt P54619+Q9Y478+Q13131); assay: AMPK A1B1G1 Invitrogen selectivity data (BI); format: protein-complex assay; settings: Compound concentration 3.0 uM
[5] = test system: Epidermal growth factor receptor (Homo sapiens), P00533 [T790M]; assay: EGFR T790M Invitrogen selectivity data (BI); settings: Compound concentration 3.0 uM
[6] = target: Sphingosine kinase 1 (Homo sapiens) (UniProt Q9NYA1); assay: SPHK1 Invitrogen selectivity data (BI); settings: Compound concentration 3.0 uM
[7] = target: Homeodomain-interacting protein kinase 2 (Homo sapiens) (UniProt Q9H2X6); assay: HIPK2 Invitrogen selectivity data (BI); settings: Compound concentration 3.0 uM
[8] = target: Phosphorylase b kinase gamma catalytic chain, liver/testis isoform (Homo sapiens) (UniProt P15735); assay: PHKG2 Invitrogen selectivity data (BI); settings: Compound concentration 3.0 uM
[9] = target: Serine/threonine-protein kinase Nek7 (Homo sapiens) (UniProt Q8TDX7); assay: NEK7 Invitrogen selectivity data (BI); settings: Compound concentration 3.0 uM
[10] = target: Substance-P receptor (Homo sapiens) (UniProt P25103); assay: NK1/HUM Cerep selectivity data (BI); settings: Compound concentration 20.0 uM
[11] = target: Calcium/calmodulin-dependent protein kinase type 1D (Homo sapiens) (UniProt Q8IU85); assay: CAMK1D Invitrogen selectivity data (BI); settings: Compound concentration 3.0 uM
[12] = target: T2, 5-hydroxytryptamine receptor 2C (Homo sapiens) (UniProt P28335); assay: 5HT2CH_AGON Cerep selectivity data (BI); settings: filed as agonist, Compound concentration 20.0 uM
T2 sequence (whole entry): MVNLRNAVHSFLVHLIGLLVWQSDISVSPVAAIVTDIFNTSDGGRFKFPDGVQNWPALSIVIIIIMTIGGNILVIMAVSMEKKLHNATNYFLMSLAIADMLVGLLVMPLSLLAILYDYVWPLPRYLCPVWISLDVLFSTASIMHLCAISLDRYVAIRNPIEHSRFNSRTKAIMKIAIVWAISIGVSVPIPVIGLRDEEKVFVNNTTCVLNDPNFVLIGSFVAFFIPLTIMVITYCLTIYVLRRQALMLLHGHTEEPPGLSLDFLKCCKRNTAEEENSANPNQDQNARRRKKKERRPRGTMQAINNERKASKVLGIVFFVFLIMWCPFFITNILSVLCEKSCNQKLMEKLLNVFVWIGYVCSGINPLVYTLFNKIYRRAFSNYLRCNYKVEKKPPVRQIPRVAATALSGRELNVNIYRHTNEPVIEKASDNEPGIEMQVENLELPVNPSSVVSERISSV

[13] = target: CDK9/Cyclin K (Homo sapiens) (UniProt P50750+O75909); assay: CDK9_CYCLINK Invitrogen selectivity data (BI); format: protein-complex assay; settings: Compound concentration 3.0 uM
[14] = target: T3, Tyrosine-protein kinase JAK3 (Homo sapiens) (UniProt P52333); assay: JAK3 Invitrogen selectivity data (BI); settings: Compound concentration 3.0 uM
T3 sequence (whole entry): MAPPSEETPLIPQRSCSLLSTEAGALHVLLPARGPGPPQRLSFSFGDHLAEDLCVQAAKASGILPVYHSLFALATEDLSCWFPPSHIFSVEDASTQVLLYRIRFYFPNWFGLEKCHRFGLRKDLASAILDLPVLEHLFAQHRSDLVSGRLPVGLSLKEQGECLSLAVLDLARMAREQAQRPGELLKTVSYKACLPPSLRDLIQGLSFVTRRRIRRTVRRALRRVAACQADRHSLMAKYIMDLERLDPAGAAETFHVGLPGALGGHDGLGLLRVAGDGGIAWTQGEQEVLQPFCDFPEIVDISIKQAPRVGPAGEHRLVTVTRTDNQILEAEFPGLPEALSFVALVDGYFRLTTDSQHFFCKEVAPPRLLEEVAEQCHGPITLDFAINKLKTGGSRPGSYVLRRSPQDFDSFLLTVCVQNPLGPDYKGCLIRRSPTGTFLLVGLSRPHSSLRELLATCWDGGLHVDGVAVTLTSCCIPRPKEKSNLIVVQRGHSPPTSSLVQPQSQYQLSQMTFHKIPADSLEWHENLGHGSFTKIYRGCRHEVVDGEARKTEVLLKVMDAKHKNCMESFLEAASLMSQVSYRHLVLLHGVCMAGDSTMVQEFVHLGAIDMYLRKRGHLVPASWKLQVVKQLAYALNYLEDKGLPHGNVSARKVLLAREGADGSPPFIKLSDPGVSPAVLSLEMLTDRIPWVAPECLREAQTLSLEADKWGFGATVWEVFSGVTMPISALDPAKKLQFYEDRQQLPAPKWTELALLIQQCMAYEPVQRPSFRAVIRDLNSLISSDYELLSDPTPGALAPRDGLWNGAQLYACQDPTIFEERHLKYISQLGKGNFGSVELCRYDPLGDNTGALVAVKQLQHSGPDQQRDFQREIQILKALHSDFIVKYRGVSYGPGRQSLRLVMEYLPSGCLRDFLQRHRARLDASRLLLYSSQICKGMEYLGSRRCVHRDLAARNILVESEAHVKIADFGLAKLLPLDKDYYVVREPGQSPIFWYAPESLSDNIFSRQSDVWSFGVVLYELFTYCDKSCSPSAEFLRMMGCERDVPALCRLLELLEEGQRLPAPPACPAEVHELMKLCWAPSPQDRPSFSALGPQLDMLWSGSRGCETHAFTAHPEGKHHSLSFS

[15] = test system: Mast/stem cell growth factor receptor Kit (Homo sapiens), P10721 [V654A]; assay: KIT_V654A Invitrogen selectivity data (BI); settings: Compound concentration 3.0 uM
[16] = target: Epithelial discoidin domain-containing receptor 1 (Homo sapiens) (UniProt Q08345); assay: DDR1 Invitrogen selectivity data (BI); settings: Compound concentration 3.0 uM
Cricetinae = assay: ML2(MT3) Cerep selectivity data (BI); settings: Compound concentration 20.0 uM

Measured: residual activity

Sequence of Mast/stem cell growth factor receptor Kit (Homo sapiens), P10721 [V654A] (P10721 whole entry V654A, the tested form may be a part): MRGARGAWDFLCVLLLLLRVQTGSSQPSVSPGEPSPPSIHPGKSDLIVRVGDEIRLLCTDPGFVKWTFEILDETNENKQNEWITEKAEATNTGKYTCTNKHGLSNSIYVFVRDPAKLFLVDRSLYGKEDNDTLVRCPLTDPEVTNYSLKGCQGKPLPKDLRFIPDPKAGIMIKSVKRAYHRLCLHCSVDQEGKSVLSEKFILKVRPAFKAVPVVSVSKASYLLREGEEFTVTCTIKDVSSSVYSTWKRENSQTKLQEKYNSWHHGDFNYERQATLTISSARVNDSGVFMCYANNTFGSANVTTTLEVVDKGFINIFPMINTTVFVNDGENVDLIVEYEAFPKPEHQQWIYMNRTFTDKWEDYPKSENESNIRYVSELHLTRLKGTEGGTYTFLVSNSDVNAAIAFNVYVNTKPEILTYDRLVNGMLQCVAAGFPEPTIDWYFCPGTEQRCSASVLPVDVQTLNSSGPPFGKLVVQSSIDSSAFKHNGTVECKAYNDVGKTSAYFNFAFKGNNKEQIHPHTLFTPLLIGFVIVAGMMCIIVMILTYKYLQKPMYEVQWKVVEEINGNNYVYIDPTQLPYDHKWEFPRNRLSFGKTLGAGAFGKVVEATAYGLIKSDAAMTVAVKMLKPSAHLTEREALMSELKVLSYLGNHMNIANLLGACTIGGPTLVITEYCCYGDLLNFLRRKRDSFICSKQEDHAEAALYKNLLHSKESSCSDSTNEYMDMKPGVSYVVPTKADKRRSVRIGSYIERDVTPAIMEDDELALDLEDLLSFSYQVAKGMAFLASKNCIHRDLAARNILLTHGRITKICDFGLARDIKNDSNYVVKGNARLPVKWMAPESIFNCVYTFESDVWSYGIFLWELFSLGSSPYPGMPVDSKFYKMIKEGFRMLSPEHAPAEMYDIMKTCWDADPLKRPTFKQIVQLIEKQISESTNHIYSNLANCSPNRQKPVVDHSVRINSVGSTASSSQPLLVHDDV
Sequence of Epithelial discoidin domain-containing receptor 1 (Homo sapiens) (Q08345 whole entry, the tested form may be a part): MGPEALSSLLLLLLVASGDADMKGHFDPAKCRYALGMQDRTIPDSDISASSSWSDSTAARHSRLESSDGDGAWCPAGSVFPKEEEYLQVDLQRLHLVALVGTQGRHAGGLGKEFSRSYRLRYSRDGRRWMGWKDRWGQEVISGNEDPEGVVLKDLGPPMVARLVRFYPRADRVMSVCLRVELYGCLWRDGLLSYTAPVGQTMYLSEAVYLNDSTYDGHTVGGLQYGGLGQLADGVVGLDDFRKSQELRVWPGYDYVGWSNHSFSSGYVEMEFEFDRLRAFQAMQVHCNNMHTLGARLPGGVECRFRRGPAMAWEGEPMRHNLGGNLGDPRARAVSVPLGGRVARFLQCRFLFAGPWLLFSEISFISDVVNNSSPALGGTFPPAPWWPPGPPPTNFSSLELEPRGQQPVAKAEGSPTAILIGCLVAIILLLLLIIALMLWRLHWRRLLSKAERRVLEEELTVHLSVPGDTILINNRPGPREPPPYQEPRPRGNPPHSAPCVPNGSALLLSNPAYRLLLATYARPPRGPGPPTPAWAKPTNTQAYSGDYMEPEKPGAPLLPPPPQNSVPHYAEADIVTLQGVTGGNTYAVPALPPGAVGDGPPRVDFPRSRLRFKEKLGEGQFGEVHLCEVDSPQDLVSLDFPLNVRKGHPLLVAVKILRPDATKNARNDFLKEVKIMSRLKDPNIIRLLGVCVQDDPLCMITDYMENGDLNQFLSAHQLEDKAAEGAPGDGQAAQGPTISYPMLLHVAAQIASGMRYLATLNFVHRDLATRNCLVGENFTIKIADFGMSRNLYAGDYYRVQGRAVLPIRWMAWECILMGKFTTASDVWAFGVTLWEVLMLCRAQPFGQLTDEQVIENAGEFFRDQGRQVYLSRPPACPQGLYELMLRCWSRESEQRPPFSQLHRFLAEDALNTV
Sequence of Phosphorylase b kinase gamma catalytic chain, liver/testis isoform (Homo sapiens) (P15735 whole entry, looked up, canonical isoform): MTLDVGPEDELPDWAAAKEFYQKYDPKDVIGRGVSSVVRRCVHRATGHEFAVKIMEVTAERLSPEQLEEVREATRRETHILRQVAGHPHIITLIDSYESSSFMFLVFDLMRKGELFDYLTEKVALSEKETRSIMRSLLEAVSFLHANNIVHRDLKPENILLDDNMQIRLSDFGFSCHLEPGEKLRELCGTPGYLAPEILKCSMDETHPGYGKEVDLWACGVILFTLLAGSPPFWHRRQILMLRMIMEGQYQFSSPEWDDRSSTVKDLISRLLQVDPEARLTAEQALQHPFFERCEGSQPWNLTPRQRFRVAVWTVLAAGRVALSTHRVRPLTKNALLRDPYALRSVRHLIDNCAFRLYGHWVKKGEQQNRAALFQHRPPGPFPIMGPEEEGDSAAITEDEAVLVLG
Sequence of Homeodomain-interacting protein kinase 2 (Homo sapiens) (Q9H2X6 whole entry, looked up, canonical isoform): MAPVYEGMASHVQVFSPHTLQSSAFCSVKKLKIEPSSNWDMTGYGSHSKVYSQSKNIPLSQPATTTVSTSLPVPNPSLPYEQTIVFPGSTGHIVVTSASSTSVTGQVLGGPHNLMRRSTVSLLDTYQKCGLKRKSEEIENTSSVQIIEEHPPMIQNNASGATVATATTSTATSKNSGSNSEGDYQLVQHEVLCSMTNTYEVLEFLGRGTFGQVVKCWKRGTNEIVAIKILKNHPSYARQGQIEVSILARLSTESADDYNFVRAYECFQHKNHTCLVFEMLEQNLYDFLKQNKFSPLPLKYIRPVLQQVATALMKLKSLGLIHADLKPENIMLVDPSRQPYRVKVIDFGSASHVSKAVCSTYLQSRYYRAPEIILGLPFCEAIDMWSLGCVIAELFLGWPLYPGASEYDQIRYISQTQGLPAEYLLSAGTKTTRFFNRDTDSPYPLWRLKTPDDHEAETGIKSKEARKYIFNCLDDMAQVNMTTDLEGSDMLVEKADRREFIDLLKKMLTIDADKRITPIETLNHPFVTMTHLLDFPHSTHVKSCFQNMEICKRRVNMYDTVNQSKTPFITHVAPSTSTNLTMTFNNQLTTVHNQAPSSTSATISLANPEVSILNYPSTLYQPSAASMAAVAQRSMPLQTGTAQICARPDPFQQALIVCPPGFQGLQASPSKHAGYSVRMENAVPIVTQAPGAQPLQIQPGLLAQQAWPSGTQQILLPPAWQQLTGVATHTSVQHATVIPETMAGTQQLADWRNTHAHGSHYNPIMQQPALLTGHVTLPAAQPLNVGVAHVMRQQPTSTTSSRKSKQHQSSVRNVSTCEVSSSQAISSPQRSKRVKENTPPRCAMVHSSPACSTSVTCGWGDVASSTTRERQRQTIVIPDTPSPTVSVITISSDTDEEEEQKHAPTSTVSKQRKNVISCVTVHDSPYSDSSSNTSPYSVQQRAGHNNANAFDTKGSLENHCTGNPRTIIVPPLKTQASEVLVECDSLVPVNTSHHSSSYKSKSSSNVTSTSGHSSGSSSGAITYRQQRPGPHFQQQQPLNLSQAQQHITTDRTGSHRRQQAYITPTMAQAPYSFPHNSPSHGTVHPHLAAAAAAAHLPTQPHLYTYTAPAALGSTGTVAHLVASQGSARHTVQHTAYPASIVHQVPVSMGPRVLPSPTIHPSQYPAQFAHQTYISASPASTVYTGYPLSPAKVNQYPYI
Sequence of 72 kDa type IV collagenase (Homo sapiens) (P08253 110-660 limits assumed): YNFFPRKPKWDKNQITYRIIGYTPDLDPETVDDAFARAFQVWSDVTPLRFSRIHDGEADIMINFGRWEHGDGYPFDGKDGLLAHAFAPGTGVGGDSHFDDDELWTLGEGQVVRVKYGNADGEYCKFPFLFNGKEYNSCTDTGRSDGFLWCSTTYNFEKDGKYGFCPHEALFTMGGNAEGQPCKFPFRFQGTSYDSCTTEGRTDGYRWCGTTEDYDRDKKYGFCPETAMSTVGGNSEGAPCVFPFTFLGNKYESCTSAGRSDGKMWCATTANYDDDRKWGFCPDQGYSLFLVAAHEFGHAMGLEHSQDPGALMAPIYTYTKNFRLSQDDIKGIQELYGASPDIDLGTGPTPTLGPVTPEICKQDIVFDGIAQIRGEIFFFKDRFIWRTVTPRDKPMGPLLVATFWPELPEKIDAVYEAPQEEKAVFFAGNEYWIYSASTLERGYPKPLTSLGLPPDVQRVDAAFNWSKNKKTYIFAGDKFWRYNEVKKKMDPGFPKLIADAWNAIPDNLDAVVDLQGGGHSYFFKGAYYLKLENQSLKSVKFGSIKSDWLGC
Sequence of Serine/threonine-protein kinase Nek7 (Homo sapiens) (Q8TDX7 whole entry, looked up): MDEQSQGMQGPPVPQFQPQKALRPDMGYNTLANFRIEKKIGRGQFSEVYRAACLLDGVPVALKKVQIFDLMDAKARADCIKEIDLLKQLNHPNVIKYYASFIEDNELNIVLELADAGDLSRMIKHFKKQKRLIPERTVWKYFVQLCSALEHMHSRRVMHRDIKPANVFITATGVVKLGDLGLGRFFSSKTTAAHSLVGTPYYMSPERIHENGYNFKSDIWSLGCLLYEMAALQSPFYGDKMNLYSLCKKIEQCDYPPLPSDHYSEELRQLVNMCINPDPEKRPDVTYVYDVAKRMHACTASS
Sequence of Calcium/calmodulin-dependent protein kinase type 1D (Homo sapiens) (Q8IU85 whole entry, looked up): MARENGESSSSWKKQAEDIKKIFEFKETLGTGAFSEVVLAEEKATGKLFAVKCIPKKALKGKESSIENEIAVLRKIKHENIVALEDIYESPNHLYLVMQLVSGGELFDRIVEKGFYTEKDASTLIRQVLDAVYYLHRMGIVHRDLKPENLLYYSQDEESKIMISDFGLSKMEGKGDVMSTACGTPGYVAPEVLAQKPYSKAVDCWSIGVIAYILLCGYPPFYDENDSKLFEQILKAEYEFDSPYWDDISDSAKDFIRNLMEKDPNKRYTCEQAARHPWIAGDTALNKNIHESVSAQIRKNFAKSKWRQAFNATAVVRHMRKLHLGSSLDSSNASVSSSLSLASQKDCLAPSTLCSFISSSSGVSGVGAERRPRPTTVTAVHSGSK

CN(C)C(=O)Cn1cc(-c2nc([C@@](C)(c3ccc(-c4cnc(N)nc4)cc3)C3CC3)no2)cn1 [BI 665915]
inactive: [1] 95% | [2] 96% | [3] 102% | [4] 104% | [5] 104% | [6] 95.5% | [7] 96% | [8] 97.5% | [9] 99% | [10] 95% | [11] 96% | [12] 90% | [13] 96% | [14] 96.5% | [15] 95% | [16] 99% | Cricetinae 70%
